# Assay results published in patent US10633382B2, “Imidazopyrazinones, pyrazolopyrimidinones and pyrazolopyridinones as PDE1 inhibitors” (H. Lundbeck A/S, priority 2016, dated 2020).
# Assays:
# Format in all cases: biochemical
# PDE1C = PDE1C (Homo sapiens, UniProt Q14123); test: PDE1 inhibition assay (PDE1C); conditions: 15 nM tritium labelled cAMP, SPA
# Method: (§1) PDE1A, PDE1B and PDE1C assays were performed as follows: the assays were performed in 60 μL samples containing a fixed amount of the PDE1 enzyme (sufficient to convert 20-25% of the cyclic nucleotide substrate), a buffer (50 mM HEPES (4-(2-hydroxyethyl)-1-piperazineethanesulfonic acid) pH 7.6; 10 mM MgCl2; 0.02% Tween20), 0.1 mg/ml BSA (bovine serum albumin), 15 nM tritium labelled cAMP and varying amounts of inhibitors. Reactions were initiated by addition of the cyclic nucleotide substrate, and reactions were allowed to proceed for 1 hr at room temperature before being terminated through mixing with 20 μL (0.2 mg) yttrium silicate SPA beads (PerkinElmer). The beads were allowed to settle for 1 hour in the dark before the plates were counted in a Wallac 1450 Microbeta counter. The measured signals were converted to activity relative to an uninhibited control (100%) and IC50 values were calculated using XlFit (model 205, IDBS).
# PDE1B = PDE1B (Homo sapiens, UniProt Q01064); test: PDE1 inhibition assay (PDE1B); conditions: 15 nM tritium labelled cAMP, SPA
# Method: as §1
# PDE9 = PDE9 (Homo sapiens, UniProt O76083); test: PDE9 inhibition assay; conditions: 10 μM of inhibitor
# Method: A PDE9 assay may for example, be performed as follows: The assay is performed in 60 μL samples containing a fixed amount of the relevant PDE enzyme (sufficient to convert 20-25% of the cyclic nucleotide substrate), a buffer (50 mM HEPES pH 7.6; 10 mM MgCl2; 0.02% Tween20), 0.1 mg/ml BSA, 225 pCi of ^3H-labelled cyclic nucleotide substrate, tritium labeled cAMP to a final concentration of 5 nM and varying amounts of inhibitors. Reactions are initiated by addition of the cyclic nucleotide substrate, and reactions are allowed to proceed for one hr at room temperature before being terminated through mixing with 15 μL 8 mg/mL yttrium silicate SPA beads (Amersham). The beads are allowed to settle for one hr in the dark before the plates are counted in a Wallac 1450 Microbeta counter. The measured signal can be converted to activity relative to an uninhibited control (100%) and IC50 values can be calculated using the Xlfit extension to EXCEL.
# In the context of the present invention the assay was performed in 60 μL assay buffer (50 mM HEPES pH 7.6; 10 mM MgCl2; 0.02% Tween20) containing enough PDE9 to convert 20-25% of 10 nM ^3H-cAMP, and […] 10 μM of inhibitor. Following 1 hr incubation the reactions were terminated by addition of 15 μL 8 mg/mL yttrium silicate SPA beads (Amersham). The beads were allowed to settle for one hr in the dark before the plates were counted in a Wallac 1450 Microbeta counter.
# PDE1A = PDE1A (Homo sapiens, UniProt P54750); test: PDE1 inhibition assay (PDE1A); conditions: 15 nM tritium labelled cAMP, SPA
# Method: as §1
# Sequence of PDE1C (Q14123 whole entry): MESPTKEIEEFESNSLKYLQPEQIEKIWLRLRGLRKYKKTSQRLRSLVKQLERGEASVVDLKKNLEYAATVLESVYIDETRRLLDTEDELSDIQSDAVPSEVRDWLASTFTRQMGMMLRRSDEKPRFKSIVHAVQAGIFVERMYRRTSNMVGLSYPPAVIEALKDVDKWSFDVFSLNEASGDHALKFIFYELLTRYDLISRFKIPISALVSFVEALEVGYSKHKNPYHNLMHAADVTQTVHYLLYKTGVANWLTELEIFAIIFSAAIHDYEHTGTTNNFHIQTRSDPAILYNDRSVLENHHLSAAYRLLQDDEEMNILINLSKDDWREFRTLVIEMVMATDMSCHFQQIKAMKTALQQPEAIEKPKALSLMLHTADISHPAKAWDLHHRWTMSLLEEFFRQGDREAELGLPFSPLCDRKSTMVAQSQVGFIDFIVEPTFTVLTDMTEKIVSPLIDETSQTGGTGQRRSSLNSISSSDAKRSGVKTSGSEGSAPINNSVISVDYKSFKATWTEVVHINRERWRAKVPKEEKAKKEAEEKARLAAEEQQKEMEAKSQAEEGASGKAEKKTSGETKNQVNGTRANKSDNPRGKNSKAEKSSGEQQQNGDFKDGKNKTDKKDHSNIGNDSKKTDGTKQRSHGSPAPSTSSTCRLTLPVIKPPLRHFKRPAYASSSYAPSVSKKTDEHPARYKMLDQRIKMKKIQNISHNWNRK
# Sequence of PDE9 (O76083 whole entry): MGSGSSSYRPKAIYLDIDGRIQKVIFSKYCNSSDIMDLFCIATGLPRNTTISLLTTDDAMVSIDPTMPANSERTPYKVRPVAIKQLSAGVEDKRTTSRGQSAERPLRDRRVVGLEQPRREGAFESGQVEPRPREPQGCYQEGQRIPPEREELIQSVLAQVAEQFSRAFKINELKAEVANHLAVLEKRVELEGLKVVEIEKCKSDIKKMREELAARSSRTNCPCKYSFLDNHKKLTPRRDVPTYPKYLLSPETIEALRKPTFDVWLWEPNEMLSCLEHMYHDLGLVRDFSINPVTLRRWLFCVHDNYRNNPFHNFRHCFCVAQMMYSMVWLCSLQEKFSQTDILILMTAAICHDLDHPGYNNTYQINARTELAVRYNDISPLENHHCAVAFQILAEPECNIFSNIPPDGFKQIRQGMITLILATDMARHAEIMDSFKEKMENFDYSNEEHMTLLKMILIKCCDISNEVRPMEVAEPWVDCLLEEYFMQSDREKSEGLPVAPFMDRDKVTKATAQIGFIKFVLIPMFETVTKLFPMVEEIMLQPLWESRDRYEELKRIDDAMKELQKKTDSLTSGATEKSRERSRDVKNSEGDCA
# Sequence of PDE1A (P54750 whole entry): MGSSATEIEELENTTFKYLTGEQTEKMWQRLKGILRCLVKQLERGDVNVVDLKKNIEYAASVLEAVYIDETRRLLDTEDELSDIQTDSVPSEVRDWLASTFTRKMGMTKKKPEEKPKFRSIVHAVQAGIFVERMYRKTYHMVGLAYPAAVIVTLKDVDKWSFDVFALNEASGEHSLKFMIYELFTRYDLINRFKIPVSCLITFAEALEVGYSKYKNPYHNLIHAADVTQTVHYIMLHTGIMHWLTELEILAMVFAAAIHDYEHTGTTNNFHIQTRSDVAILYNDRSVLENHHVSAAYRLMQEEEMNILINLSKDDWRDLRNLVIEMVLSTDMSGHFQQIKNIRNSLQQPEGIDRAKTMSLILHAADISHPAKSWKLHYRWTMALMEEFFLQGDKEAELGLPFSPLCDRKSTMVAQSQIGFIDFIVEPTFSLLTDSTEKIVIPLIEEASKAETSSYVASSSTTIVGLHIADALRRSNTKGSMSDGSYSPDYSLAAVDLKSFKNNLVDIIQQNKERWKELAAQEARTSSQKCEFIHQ
# Sequence of PDE1B (Q01064 whole entry): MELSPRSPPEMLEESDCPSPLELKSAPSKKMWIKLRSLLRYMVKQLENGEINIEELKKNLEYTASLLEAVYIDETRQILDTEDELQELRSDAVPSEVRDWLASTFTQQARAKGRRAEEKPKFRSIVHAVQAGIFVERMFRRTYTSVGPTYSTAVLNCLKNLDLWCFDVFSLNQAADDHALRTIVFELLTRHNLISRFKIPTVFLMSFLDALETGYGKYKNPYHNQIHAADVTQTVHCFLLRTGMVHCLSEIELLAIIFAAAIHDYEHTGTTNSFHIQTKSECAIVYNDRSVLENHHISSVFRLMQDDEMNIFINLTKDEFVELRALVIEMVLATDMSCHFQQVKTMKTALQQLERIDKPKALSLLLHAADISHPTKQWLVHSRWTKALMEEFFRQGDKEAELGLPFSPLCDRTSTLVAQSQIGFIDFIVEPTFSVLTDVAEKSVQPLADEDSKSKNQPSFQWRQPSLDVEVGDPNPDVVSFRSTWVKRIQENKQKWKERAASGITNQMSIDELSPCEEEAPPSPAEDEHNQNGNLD
SMILES,IC50 (PDE1C),IC50 (PDE1B),inhibition at 10 µM (PDE9),IC50 (PDE1A)
"COc1cccc(-c2ccc(Cc3cn4c(C5CCOCC5)ncc4c(=O)n3C)cc2)n1 [Example 16, 6-[[4-(6-methoxy-2-pyridyl)phenyl]methyl]-7-methyl-3-tetrahydropyran-4-yl-imidazo[1,5-a]pyrazin-8-one]",42 nM,4.7 nM,7%,24 nM
"COc1cccnc1-c1ccc(Cc2cn3c(C4CCOCC4)ncc3c(=O)n2C)cc1 [Example 17, 6-[[4-(3-methoxy-2-pyridyl)phenyl]methyl]-7-methyl-3-tetrahydropyran-4-yl-imidazo[1,5-a]pyrazin-8-one]",161 nM,21 nM,2%,87 nM
"Cc1ccccc1-c1ccc(Cc2cn3c(C4CCOCC4)ncc3c(=O)n2C)cc1 [Example 18, 7-methyl-6-[[4-(o-tolyl)phenyl]methyl]-3-tetrahydropyran-4-yl-imidazo[1,5-a]pyrazin-8-one]",238 nM,23 nM,9%,117 nM
"Cn1c(Cc2ccc(-c3ccccc3)cc2)cn2c(C3CCOCC3)ncc2c1=O [Example 19, 7-methyl-6-[(4-phenylphenyl)methyl]-3-tetrahydropyran-4-yl-imidazo[1,5-a]pyrazin-8-one]",61 nM,7.3 nM,7%,28 nM
"Cn1cnc(-c2ccc(Cc3cn4c(C5CCOCC5)ncc4c(=O)n3C)cc2)c1 [Example 20, 7-methyl-6-(4-(1-methyl-1H-imidazol-4-yl)benzyl)-3-(tetrahydro-2H-pyran-4-yl)imidazo[1,5-a]pyrazin-8(7H)-one]",157 nM,17 nM,-6%,75 nM
"CC(C)c1ncc2c(=O)n(C)c(Cc3ccc(-c4cccc(F)n4)cc3)cn12 [Example 21, 6-[[4-(6-fluoro-2-pyridyl)phenyl]methyl]-3-isopropyl-7-methyl-imidazo[1,5-a]pyrazin-8-one]",93 nM,13 nM,13%,36 nM
"CCCc1ncc2c(=O)n(C)c(Cc3ccc(-c4cccc(F)n4)cc3)cn12 [Example 22, 6-(4-(6-fluoropyridin-2-yl)benzyl)-7-methyl-3-propylimidazo[1,5-a]pyrazin-8(7H)-one]",310 nM,40 nM,2%,168 nM
"CCc1ncc2c(=O)n(C)c(Cc3ccc(-c4cccc(F)n4)cc3)cn12 [Example 23, 3-ethyl-6-(4-(6-fluoropyridin-2-yl)benzyl)-7-methylimidazo[1,5-a]pyrazin-8(7H)-one]",578 nM,56 nM,17%,176 nM
"Cn1c(Cc2ccc(-c3cnccn3)cc2)cn2c(C3CCOCC3)ncc2c1=O [Example 24, 7-methyl-6-(4-(pyrazin-2-yl)benzyl)-3-(tetrahydro-2H-pyran-4-yl)imidazo[1,5-a]pyrazin-8(7H)-one]",198 nM,30 nM,-2%,91 nM
"Cn1c(Cc2ccc(-c3cccc(F)n3)cc2)cn2c(CC(F)(F)F)ncc2c1=O [Example 25, 6-(4-(6-fluoropyridin-2-yl)benzyl)-7-methyl-3-(2,2,2-trifluoroethyl)imidazo[1,5-a]pyrazin-8(7H)-one]",400 nM,90 nM,9%,218 nM
"Cn1c(Cc2ccc(-c3ccncn3)cc2)cn2c(C3CCOCC3)ncc2c1=O [Example 26, 7-methyl-6-(4-(pyrimidin-4-yl)benzyl)-3-(tetrahydro-2H-pyran-4-yl)imidazo[1,5-a]pyrazin-8(7H)-one]",149 nM,16 nM,14%,68 nM
